# T1: MIF (Homo sapiens, UniProt P14174)
# T1 construct: made in house; host or cells: E. coli BL21(DE3), pET11b (inferred from Section 6; the Section 8 text says only 'recombinant')
# T1 sequence (P14174 2-115 limits assumed): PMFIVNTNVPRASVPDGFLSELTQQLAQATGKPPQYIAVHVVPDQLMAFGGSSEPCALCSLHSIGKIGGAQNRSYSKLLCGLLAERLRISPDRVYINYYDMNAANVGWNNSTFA
# B1: rhuMIF: recombinant human MIF expressed in E. coli from pET11b, native amino-terminus (protein, UniProt P14174 2-115, looked up)
# Macrophage migration …: T1 sequence (P14174 2-115 limits assumed)
# B2: AGE-MIF: recombinant human MIF glycated by incubation with 0.5 M glucose; three-fold Amadori product modification (protein, UniProt P14174 2-115, looked up)
# Macrophage migration …: T1 sequence (P14174 2-115 limits assumed)
# modifications: advanced glycation end-product modified
# Key:
# MIF = target: T1, MIF; assay: MIF dopachrome tautomerase activity assay with Compound 1b as MIF-substrate; type: biochemical; settings: test compound used in place of the MIF-substrate
# Description: The general method of performing an assay for MIF dopachrome tautomerase activity, described in more detail below, begins with the oxidation of a percursor of the MIF-substrate (e.g., DOPA-related Compound 1a [L-3-(3,4-dihydroxyphenyl) alanine methyl ester] above) and, if required, the similar oxidation of precursors of the test inhibitors (e.g., the DOPA-related Compounds 2a [L-3-(3,4-dihydroxyphenyl)-2-methyl alanine], 3a [D/L-3-(3,4-dihydroxyphenyl)-2-methyl alanine], 4a [L-3-(3,4-dihydroxyphenyl)-2-methyl alanine methyl ester] and 5a [D/L-3-(3,4-dihydroxyphenyl)-2 methyl alanine methyl ester] above). This oxidation of each precursor compound with sodium periodate generates the corresponding orange-colored dopachrome derivative; specifically, a preferred MIF-substrate (Compound 1B above) and the test inhibitors (Compounds 2b, 3b, 4b, and 5b above). Upon addition of MIF, the MIF-substrate (Compound 1b [L-3,5-dihydro-6-hydroxy-5-oxo-2H-indole-2-carboxylic acid methyl ester]) undergoes tautomerization resulting in a colorless product. In the presence of the test inhibitors (Compounds 2b, 3b, 4b, and 5b), decolorization of MIF-substrate (Compound 1b) was retarded. Test compounds 2b, 3b, 4b, and 5b themselves were unreactive in this tautomerization reaction; that is, they were not tautomerized and correspondingly decolorized by MIF dopachrome tautomerase activity if they were substituted for the MIF-substrate in this assay method.
# In a preferred MIF dopachrome tautomerase activity assay procedure, the DOPA-related precursors (Compounds 1a, 2a, 3a, 4a, and 5a above) are prepared as 10 mM stock solutions in Assay Buffer (10 mM sodium phosphate, pH 6.0). About 10 minutes before the tautomerization assay, 1.0 ml of each stock solution was diluted with 8 ml of Assay Buffer, and 1.0 ml of sodium periodate stock solution (20 mM in water) was added to initiate the oxidation of the diluted precursors, thus generating each respective dopachrome derivative (i.e., Compounds 1b, 2b, 3b, 4b, and 5b) at a final concentration of 1 mM. To perform the actual tautomerization assay, 0.5 ml of the 1 mM solution of the MIF-substrate (i.e., Compound 1b) was mixed with 0.5 ml of Assay Buffer (no inhibitor control reaction) or 0.5 ml of the 1 mM dilution of the test inhibitor (e.g., Compounds 2b, 3b, 4b, or 5b), followed by addition of 10 μl of recombinant […] solution from a 20 μg/ml stock.
# recombinant human MIF = recombinant human MIF (Homo sapiens, UniProt P14174); assay: biochemical; settings: read-out: % Inhibition of MIF tautomerase activity
# RAW 264.7 macrophages [1] = assay: MIF-induced secretion of TNFα by mouse macrophages (L929 cell cytotoxicity readout); type: cell-based, murine
# Description: TNFα production was quantitated in MIF-conditioned RAW 264.7 macrophage supernatants by L929 cell cytotoxicity as described previously (Wolpe et al., 1988, J. Exp. Med. 167: 570). RAW 264.7 macrophages were resuspended in RPMI/10% FBS, plated at 1×10^6 cells/ml, incubated for 3 hours at 37° C. in a humidified atmosphere with 5% CO2, and washed twice with RPMI/1% FBS. Cells were incubated for 12-14 hours with various doses of MIF diluted in RPMI/1% FBS. At the end of each experiment, cell culture media were collected, centrifuged (10 min at 800 g), and supplemented with 1 mM PMSF. MIF-induced TNFα activity was measured immediately afterwards.
# [2] = Tautomerase activity of altered or glycated MIF proteins; type: biochemical
# Description: A 1 mM solution of L-DOPA methyl ester was prepared in Reaction Buffer (10 mM sodium phosphate, pH 6, containing 0.5 mM EDTA). L-DOPA methyl ester was oxidized to colored L-dipachrome methyl ester by adding 10% (v/v) of a 20 mM aqueous solution of potassium periodate, following a 1:2 dilution with Reaction Buffer.
# The test compound, reduced glutathione, was added in concentrations of 0.1 mM, 0.5 mM, 1.0 mM, and 2.0 mM to separate cuvettes containing the substrate solution. Approximately 100 ng of purified recombinant human MIF was added to each cuvette. […]
# Purified recombinantly-produced human MIF protein was glycated by incubation in aqueous buffer in the presence of 0.5 M glucose, typically for 6 weeks in the dark at 37° C. under a nitrogen atmosphere to ensure complete glycation of susceptible residues (although other spontaneous glycation conditions will serve to glycate the protein without departing from the essence of the invention) and tested for D-dopachrome tautomerase activity by the method of Section 7 or Section 8. […] The AGE-MIF was recovered and analyzed by matrix-assisted laser desorption ionization mass spectroscopy and determined to have a mass consistent with three-fold Amadori product modification of the protein; that is, there was a mass excess of approximately 3×162 (the mass excess of a single Amadori product). […]
# RAW 264.7 macrophages [3] = assay: MIF-induced nitric oxide production in macrophages (Griess reagent); type: cell-based, murine; settings: 1 μg/ml, IFN-γ-primed RAW 264.7 macrophages
# Description: Nitric oxide (NO) production was quantitated in MIF-conditioned RAW 264.7 and thioglycollate-elicited peritoneal exudate macrophage supernatants by measuring nitrite and nitrate content with the Griess reagent. RAW 264.7 macrophages were prepared and conditioned as described above. In some experiments, cells were incubated for 1 h with recombinant murine interferon-γ (IFN-γ) (100 IU/ml) (Boehringer-Mannheim, Indianapolis, Ind.) prior to the addition of MIF. Thioglycollate-elicited peritoneal exudate macrophages were obtained from BALB/c mice that were injected intra-peritoneally 3-4 days previously with 2 ml of sterile thioglycollate broth. Cells were harvested under strict aseptic conditions by lavage of the peritoneal cavity with 5 ml of an ice-chilled 11.6% sucrose solution. After centrifugation (10 min at 800 g), cells were resuspended in RPMI/10% FBS and plated at a density of 2×10^6 cells/ml. After 3 h of incubation, non-adherent cells (i.e. PMNs, lymphocytes) were removed with RPMI/1% FBS and the remaining adherent cells conditioned with MIF as described for RAW 264.7 cells. Trace concentrations of contaminating LPS were neutralized by incubating MIF (1 and 10 μg/ml in cell culture media) with polymyxin B at a concentration of 10 and 100 ng/ml, respectively, for 30 min at room temperature under sterile conditions. […]
molecule,measurement,setting,value
"CC1(C(=O)O)CC2=CC(=O)C(O)=CC2=N1 [Compound 2b, L-3,5-dihydro-6-hydroxy-2-methyl-5-oxo-2H-indole-2-carboxylic acid]",Tautomerization by MIF when substituted for the MIF-substrate,MIF,unreactive
"CC1(C(=O)O)CC2=CC(=O)C(O)=CC2=N1 [Compound 3b, D/L-3,5-dihydro-6-hydroxy-2-methyl-5-oxo-2H-indole-2-carboxylic acid]",Tautomerization by MIF when substituted for the MIF-substrate,MIF,unreactive
"COC(=O)C1(C)CC2=CC(=O)C(O)=CC2=N1 [Compound 4b, L-3,5-dihydro-6-hydroxy-2-methyl-5-oxo-2H-indole-2-carboxylic acid methyl ester]",Tautomerization by MIF when substituted for the MIF-substrate,MIF,unreactive
"COC(=O)C1(C)CC2=CC(=O)C(O)=CC2=N1 [Compound 5b, D/L-3,5-dihydro-6-hydroxy-2-methyl-5-oxo-2H-indole-2-carboxylic acid methyl ester]",Tautomerization by MIF when substituted for the MIF-substrate,MIF,unreactive
"N[C@@H](CCC(=O)N[C@@H](CS)C(=O)NCC(=O)O)C(=O)O [Glutathione, glutathione]",inhibition at 100 µM,recombinant human MIF,14%
same,inhibition at 500 µM,recombinant human MIF,69%
same,inhibition at 1000 µM,recombinant human MIF,95%
same,inhibition at 2000 µM,recombinant human MIF,100%
B1,Secretion of TNFα induced by MIF,RAW 264.7 macrophages [1]; MIF 0.1 μg/ml,2.9 ± 2.4 ng/mL
same,Secretion of TNFα induced by MIF,RAW 264.7 macrophages [1]; MIF 1 μg/ml,3.4 ± 2.8 ng/mL
same,Secretion of TNFα induced by MIF,RAW 264.7 macrophages [1]; MIF 10 μg/ml,3.9 ± 2.8 ng/mL
same,MIF tautomerase activity of expressed protein,[2]; protein expressed in E. coli,highly active
same,NO production activity relative to rmuMIF,RAW 264.7 macrophages [3],approximately 4 fold
B2,D-dopachrome tautomerase activity of glycated MIF,"[2]; human MIF incubated with 0.5 M glucose, typically 6 weeks at 37° C., method of Section 7 or Section 8",no D-dopachrome tautomerase activity

# Source: patent US20030105014A1, “Screening assay for the identification of inhibitors of macrophage migration inhibitory factor” (priority 1996, published 2003)
